Source: patent US11752139B2, “Therapeutic combinations of orally administered irinotecan and a p-gp inhibitor for the treatment of cancer” (priority 2018, dated 2023)
Values joined by “and” are separate entries in the source; they are usually repeats but may differ in a detail not shown here. Identical values can stand only once. Like-named read-outs stand apart in the source and are kept apart here.

Key:
[1] = for AUC24 h / Cmax / Tmax: N = 3
Protocol: A phase 1 dose escalation study was performed to determine the MTD and DLT of orally administered irinotecan in combination with 15 mg (on day 1 of a 21-day cycle) of HM30181A. The study was performed on cohorts of 3-6 subjects with advanced malignancies. Subjects had Hb (hemoglobin count) 9 gm/dL, ANC (absolute neutrophil count) 1.5×10^9/L, and platelets 100×10^9/L, as well as adequate hepatic and renal function, and ECOG (Eastern Cooperative Oncology Group Performance Status) 0-1, and were not homozygous for UGT1A1*28.

[2] = Simple Emax model of exposure (AUCinf, Cmax) versus dose
[3] = Study 2: pharmacokinetics of oral irinotecan and M1, 5-20 mg/m^2 per day for 10 days during a 21 day cycle; conditions: for AUC24 / Cmax: mean
[4] = Study 1: pharmacokinetics of oral irinotecan and M1, 5-30 mg/m^2 per day for five days during a 21 day cycle; conditions: for AUC24 / Cmax: mean
[5] = IV dose of 340 mg/m^2; reference line of FIG. 5A; cited from earlier work
[6] = Tablet, dose 120 (mg), Mean (CV %), N 3, plasma
[7] = Tablet, dose 160 (mg), Mean (CV %), N 3, plasma
[8] = Tablet, dose 200 (mg), Mean (CV %), N 3, plasma
[9] = Tablet, dose 240 (mg), Mean (CV %), N 3, plasma
[10] = Tablet, dose 280 (mg), Mean (CV %), N 3, plasma
[11] = Tablet, dose 320 (mg), Mean (CV %), N 3, plasma
[12] = single oral dose 240 mg/m^2, individual subjects 1-3, plasma
[13] = single oral dose 280 mg/m^2, individual subjects 4-6, plasma
[14] = single oral dose 320 mg/m^2, individual subjects 7-9, plasma
[15] = dose 240 mg/m^2 oral irinotecan + 15 mg HM30181A
[16] = dose 280 mg/m^2 oral irinotecan + 15 mg HM30181A
[17] = dose 320 mg/m^2 oral irinotecan + 15 mg HM30181A

CCc1c2c(nc3ccc(O)cc13)-c1cc3c(c(=O)n1C2)COC(=O)[C@]3(O)CC [Compound M1]
AUC0-inf (Tablet, dose 120 (mg), Mean (CV %), N 2, plasma): 274 (18.3) ng*hr/mL
AUC0-24 [6]: 168 (32.9) ng*hr/mL
Cmax [6]: 23.1 (58.4) ng/mL
Tlast [6]: 56.0 h
Tmax* (Tablet, dose 120 (mg), N 3, plasma): 3.00 h
AUC0-24 [7]: 156 (22.6) ng*hr/mL
AUC0-inf [7]: 235 (13.4) ng*hr/mL
Cmax [7]: 25.0 (58.1) ng/mL
Tlast [7]: 48.0 (21.7) hr
Tmax* (Tablet, dose 160 (mg), N 3, plasma): 3.00 h
AUC0-24 [8]: 185 (66.3) ng*hr/mL
AUC0-inf [8]: 468 (90.0) ng*hr/mL
Cmax [8]: 23.0 (102) ng/mL
Tlast [8]: 88.0 (83.3) hr
Tmax* (Tablet, dose 200 (mg), N 3, plasma): 3.00 h
AUC0-24 [9]: 264 (66.4) ng*hr/mL
Cmax [9]: 28.3 (67.3) ng/mL
Tlast [9]: 96.0 (66.1) hr
AUC0-inf (Tablet, dose 240 (mg), N 1, plasma): 224 ng·h/mL
Tmax* (Tablet, dose 240 (mg), N 3, plasma): 3.00 h
AUC0-24 [10]: 293 (60.0) ng*hr/mL
AUC0-inf [10]: 468 (67.3) ng*hr/mL
Cmax [10]: 37.6 (42.4) ng/mL
Tlast [10]: 72.0 (0) hr
Tmax* (Tablet, dose 280 (mg), N 3, plasma): 1.5 h
AUC0-24 [11]: 300 (42.3) ng*hr/mL
Cmax [11]: 38.5 (58.7) ng/mL
Tlast [11]: 72.0 (0) hr
AUC0-inf (Tablet, dose 320 (mg), N 1, plasma): 349 ng·h/mL
Tmax* (Tablet, dose 320 (mg), N 3, plasma): 2.00 h
Observed Mean (Cmax) (dose 200 mg/m^2): 23 ng/mL
Observed Mean AUCinf (dose 200 mg/m^2): 468 ng·h/mL
Observed Mean (Cmax) (dose 240 mg/m^2): 28.3 ng/mL
Observed Mean AUCinf (dose 240 mg/m^2): 224 ng·h/mL
Observed Mean (Cmax) (dose 280 mg/m^2): 37.6 ng/mL
Observed Mean AUCinf (dose 280 mg/m^2): 468 ng·h/mL
Observed Mean (Cmax) (dose 320 mg/m^2): 38.7 ng/mL
Observed Mean AUCinf (dose 320 mg/m^2): 349 ng·h/mL
subjects with M1 exposures (AUC24) comparable between oral irinotecan and IV irinotecan (dose level of 200 mg/m^2 and above): 4 of 9
M1 Cmax compared with IV irinotecan (oral solution administration): within the range of 125 mg/m^2 dosed IV irinotecan
early enterohepatic recycling (EHR) in plasma concentration profile, time (plasma): 5.5 h
possible enterohepatic recycling (EHR) in plasma concentration profile, time (plasma): 50 h
AUC24 [12]: 133 ng·h/mL and 463 ng·h/mL and 195 ng·h/mL
AUCinf [12]: 224 ng·h/mL
AUClast [12]: 185 ng·h/mL and 636 ng·h/mL and 376 ng·h/mL
Cmax [12]: 17.1 ng/mL and 50.3 ng/mL and 17.5 ng/mL
Tlast [12]: 48 h and 168 h and 72 h
Tmax [12]: 3 h
AUC24 [13]: 497 ng·h/mL and 190 ng·h/mL and 194 ng·h/mL
AUCinf [13]: 831 ng·h/mL and 273 ng·h/mL and 300 ng·h/mL
AUClast [13]: 783 ng·h/mL and 256 ng·h/mL and 282 ng·h/mL
Cmax [13]: 55.4 ng/mL and 33.0 ng/mL and 24.5 ng/mL
Tlast [13]: 72 h
Tmax [13]: 1 h and 1.5 h and 3 h
AUC24 [14]: 212 ng·h/mL and 445 ng·h/mL and 242 ng·h/mL
AUCinf [14]: 349 ng·h/mL
AUClast [14]: 322 ng·h/mL and 713 ng·h/mL and 410 ng·h/mL
Cmax [14]: 28.1 ng/mL and 64.8 ng/mL and 23.2 ng/mL
Tlast [14]: 72 h
Tmax [14]: 1.5 h and 2 h and 3 h
M1 Cmax compared with IV irinotecan (tablet formulation, FIG. 5B): in a range of that observed with IV irinotecan dosage of 340 mg/m^2
AUC24 h [1, 15]: 264 ng·h/mL
Cmax [1, 15]: 28.3 ng/mL
Tmax [1, 15]: 3.0 h
AUC24 h [1, 16]: 293 ng·h/mL
Cmax [1, 16]: 37.6 ng/mL
AUC24 h [1, 17]: 300 ng·h/mL
Cmax [1, 17]: 38.5 ng/mL
Tmax [1, 17]: 2.0 h
concentrations of SN-38 reached ([1]; oral administration of HM30181A in combination with irinotecan tablets): pharmacologically active concentrations
Predicted AUCinf ([2]; dose 200 mg/m^2): 423
Predicted Cmax ([2]; dose 200 mg/m^2): 29.2
Predicted AUCinf ([2]; dose 240 mg/m^2): 464
Predicted Cmax ([2]; dose 240 mg/m^2): 31.9
Predicted AUCinf ([2]; dose 280 mg/m^2): 499
Predicted Cmax ([2]; dose 280 mg/m^2): 34.1
Predicted AUCinf ([2]; dose 320 mg/m^2): 528
Predicted Cmax ([2]; dose 320 mg/m^2): 38.8
pharmacokinetics versus dose ([3]; 5-20 mg/m^2 per day for 10 days during a 21 day cycle): increased proportionally with dose
AUC24 ([3]; Day 1, dose group 5 mg/m^2): 41.40 ng·h/mL
Cmax ([3]; Day 1, dose group 5 mg/m^2): 7.08 ng/mL
AUC24 ([3]; Day 1, dose group 10 mg/m^2): 43.34 ng·h/mL
Cmax ([3]; Day 1, dose group 10 mg/m^2): 5.04 ng/mL
AUC24 ([3]; Day 1, dose group 15 mg/m^2): 85.61 ng·h/mL
Cmax ([3]; Day 1, dose group 15 mg/m^2): 10.19 ng/mL
AUC24 ([3]; Day 1, dose group 20 mg/m^2): 54.44 ng·h/mL
Cmax ([3]; Day 1, dose group 20 mg/m^2): 4.15 ng/mL
AUC24 ([3]; Day 12, dose group 5 mg/m^2): 42.53 ng·h/mL
Cmax ([3]; Day 12, dose group 5 mg/m^2): 6.10 ng/mL
AUC24 ([3]; Day 12, dose group 10 mg/m^2): 38.17 ng·h/mL
Cmax ([3]; Day 12, dose group 10 mg/m^2): 4.04 ng/mL
AUC24 ([3]; Day 12, dose group 15 mg/m^2): 144.14 ng·h/mL
Cmax ([3]; Day 12, dose group 15 mg/m^2): 18.00 ng/mL
AUC24 ([3]; Day 12, dose group 20 mg/m^2): 71.97 ng·h/mL
Cmax ([3]; Day 12, dose group 20 mg/m^2): 7.63 ng/mL
pharmacokinetics versus dose ([4]; 5-30 mg/m^2 per day for five days during a 21 day cycle): increased proportionally with dose
AUC24 ([4]; Day 1, dose group 5 mg/m^2): 49.83 ng·h/mL
Cmax ([4]; Day 1, dose group 5 mg/m^2): 6.07 ng/mL
AUC24 ([4]; Day 1, dose group 10 mg/m^2): 46.04 ng·h/mL
Cmax ([4]; Day 1, dose group 10 mg/m^2): 7.84 ng/mL
AUC24 ([4]; Day 1, dose group 15 mg/m^2): 50.29 ng·h/mL
Cmax ([4]; Day 1, dose group 15 mg/m^2): 5.33 ng/mL
AUC24 ([4]; Day 1, dose group 20 mg/m^2): 63.56 ng·h/mL
Cmax ([4]; Day 1, dose group 20 mg/m^2): 8.92 ng/mL
AUC24 ([4]; Day 1, dose group 25 mg/m^2): 143.97 ng·h/mL
Cmax ([4]; Day 1, dose group 25 mg/m^2): 17.10 ng/mL
AUC24 ([4]; Day 1, dose group 30 mg/m^2): 83.64 ng·h/mL
Cmax ([4]; Day 1, dose group 30 mg/m^2): 7.31 ng/mL
AUC24 ([4]; Day 5, dose group 5 mg/m^2): 68.61 ng·h/mL
Cmax ([4]; Day 5, dose group 5 mg/m^2): 5.84 ng/mL
AUC24 ([4]; Day 5, dose group 10 mg/m^2): 51.40 ng·h/mL
Cmax ([4]; Day 5, dose group 10 mg/m^2): 6.15 ng/mL
AUC24 ([4]; Day 5, dose group 15 mg/m^2): 118.29 ng·h/mL
Cmax ([4]; Day 5, dose group 15 mg/m^2): 11.14 ng/mL
AUC24 ([4]; Day 5, dose group 20 mg/m^2): 119.38 ng·h/mL
Cmax ([4]; Day 5, dose group 20 mg/m^2): 11.73 ng/mL
AUC24 ([4]; Day 5, dose group 25 mg/m^2): 178.58 ng·h/mL
Cmax ([4]; Day 5, dose group 25 mg/m^2): 14.93 ng/mL
AUC24 ([4]; Day 5, dose group 30 mg/m^2): 308.27 ng·h/mL
Cmax ([4]; Day 5, dose group 30 mg/m^2): 13.44 ng/mL

CCc1c2c(nc3ccc(OC(=O)N4CCC(N5CCCCC5)CC4)cc13)-c1cc3c(c(=O)n1C2)COC(=O)[C@]3(O)CC [IV dosed irinotecan]
Cmax [5]: 3392 ng/mL
